± gives the standard deviation of the averaged measurements.
Legend:
Test in all cases: revertant-positive wells per 48 wells (Ames fluctuation test); higher = more mutagenic; extreme values may be limits of the assay
Settings in all cases: exposure time: 90 min
[1] = tested on: Salmonella typhimurium TA100
Experimental: (§1)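 Ames MPF Penta 1 microplate fluctuation assay (Xenometrix): bacteria exposed to compound (in DMSO) for 90 min at 37 °C with or without rat liver S9 fraction, then 2-day selection in histidine/tryptophan-free pH-indicator medium in 384-well plates; read-out is the number of revertant (yellow) wells out of 48, triplicate; compound considered mutagenic at >=2-fold over negative (DMSO) control baseline. Zero wells at high doses reflect cytotoxicity.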

[2] = tested on: Salmonella typhimurium TA1535
Experimental: as §1

[3] = tested on: Salmonella typhimurium TA1537
Experimental: as §1

[4] = tested on: Salmonella typhimurium TA98
Experimental: as §1

CC(=O)NO [acetohydroxamic acid]
revertant-positive wells per 48 wells, [1]
Settings	0.01 mM	0.05 mM	0.5 mM	1 mM	5 mM	10 mM
S9 metabolic activation: with S9	–	7.33 ± 2.1	7.33 ± 1.5	10.3 ± 1.5	15 ± 2	18.7 ± 2.5
S9 metabolic activation: without S9	3.67 ± 2.3	4.33 ± 0.58	–	5.67 ± 0.58	13.3 ± 4.7	17.3 ± 4

CCCCCCCC(=O)NO [octanohydroxamic acid]
revertant-positive wells per 48 wells
Settings	0.01 mM	0.05 mM	0.5 mM	1 mM	5 mM	10 mM
[1], S9 metabolic activation: with S9	3.67 ± 1.5	6.33 ± 1.5	–	–	5 ± 1.7	0
[1], S9 metabolic activation: without S9	5 ± 3.6	7.67 ± 1.5	6 ± 2.6	8.67 ± 0.58	0	0
[2], S9 metabolic activation: with S9	–	2	–	–	–	0
[2], S9 metabolic activation: without S9	1 ± 1	–	–	–	0	0
[3], S9 metabolic activation: with S9	–	1	0	0	0	0
[3], S9 metabolic activation: without S9	–	–	–	–	0	0

CCCCCC#CC(=O)NO [2-octynohydroxamic acid]
revertant-positive wells per 48 wells
Settings	0.01 mM	0.05 mM	0.5 mM	1 mM	5 mM	10 mM
[1], S9 metabolic activation: with S9	9.33 ± 2.3	6 ± 2	0.333 ± 0.58	0	0	0
[1], S9 metabolic activation: without S9	3 ± 1.7	3 ± 1	1.33 ± 1.1	0	0	0
[2], S9 metabolic activation: with S9	0.333 ± 0.58	2 ± 1.7	0.667 ± 1.1	1.33 ± 0.58	0	0
[2], S9 metabolic activation: without S9	1 ± 1	1 ± 1	1.67 ± 1.5	0.667 ± 1.1	0	0
[3], S9 metabolic activation: with S9	0.333 ± 0.58	1.33 ± 1.1	0	0	0	0
[3], S9 metabolic activation: without S9	1 ± 1	0.333 ± 0.58	1.33 ± 1.5	3 ± 2.6	0	0
[4], S9 metabolic activation: with S9	0	1 ± 1	1 ± 1	0.333 ± 0.58	0	0
[4], S9 metabolic activation: without S9	1.67 ± 1.5	0.333 ± 0.58	1.67 ± 1.5	0	0	0

Source: the supplement of paper PMC10933438, “Inhibition of urease-mediated ammonia production by 2-octynohydroxamic acid in hepatic encephalopathy” (Nature Communications, 2024)
